Data on one compound can be found in patent publication US20100021918A1, “METHOD FOR ASSAYING ACTION OF ANTITUMOR AGENT USING SPLICING DEFECTS AS INDEX” (Eisai R&D Management Co., Ltd., priority 2007, published 2010).

The subject of the assay is SMN. In words: Western blotting of abnormal protein from pre-mRNA, SMN. As to conditions: HeLa cells, 10 nM and 100 nM, 24 hours; untreated: only a 35 kDa band (FIG. 4). Format: cell-based, human. The text has this:
Consequently the protein may serves as a protein marker to monitor the action of (8E,12E,14E)-7-((4-cycloheptylpiperazin-1-yl)carbonyl)oxy-3,6,16,21-tetrahydroxy-6,10,12,16,20-pentamethyl-18,19-epoxytricosa-8,12,14-trien-11-olide. Whether the pre-mRNA-dependent abnormal protein practically emerged upon the treatment of (8E,12E,14E)-7-((4-cycloheptylpiperazin-1-yl)carbonyl)oxy-3,6,16,21-tetrahydroxy-6,10,12,16,20-pentamethyl-18,19-epoxytricosa-8,12,14-trien-11-olide was examined by using cancer cells (HaLa). […] Based on these findings, the protein generated from pre-mRNA can serve as the marker as well.
About 3×10^5 cells of HeLa cells were first seeded in a 24-well culture plate (bottom area: 2 cm^2), and 18 hours later, the compound was added thereto at the indicated concentration, followed by additional 24-hour culturing. The cells were washed once with PBS(−), and then were lysed by treating with 0.2 ml of M-PER reagent (PIERCE) for 30 minutes. The collected lysate was filtered with a 0.45 μm filter to remove insoluble matters and then combined with an equal amount of 2×SDS-PAGE sample solution. The mixture was heated to be denatured at 95° C. for five minutes to yield a sample to be analyzed.
The analysis sample (15 μl each) was separated with 5-20% SDS-PAGE and transferred onto a PVDF membrane (Hybond-P: GE-Amersham). […]
Background: A western blot detects proteins with antibodies after separation by electrophoresis.

In the case of `CCC(O)C(C)C1OC1CC(C)(O)/C=C/C=C(\C)C1OC(=O)CC(O)CCC(C)(O)C(OC(=O)N2CCN(C3CCCCCC3)CC2)/C=C/C1C` (stereo not shown) [E7107, (8E,12E,14E)-7-((4-cycloheptylpiperazin-1-yl)carbonyl)oxy-3,6,16,21-tetrahydroxy-6,10,12,16,20-pentamethyl-18,19-epoxytricosa-8,12,14-trien-11-olide], the “SMN bands in Western blot” value is “multiple bands with a molecular weight of less than 35 kDa were confirmed”.
